Results as given in ChEMBL document CHEMBL5550207, “Alkaline Phosphatase Activated Near-Infrared Frequency Upconversion Photosensitizers for Tumor Photodynamic Therapy” (J Med Chem, 2024).
Active and inactive are the calls of the source. The rule behind the calls is not given here.

Assays:
A549 [1] = assay: Phototoxicity in human A549 cells assessed as cell viability at upto 20 uM pre-irradiated with 808nm laser 1.5 W/cm2 for 10 mins and measured after 12 hrs by MTT assay relative to control; type: functional; conditions: time 730 min, 12.17 h, up to 20 µM
[2] = Toxicity in BALB/c mouse assessed as effect on lung at 300 uM, iv pre-irradiated with 808nm laser 1.5 W/cm2 for 10 mins and measured after 14 days by H and E staining based analysis; type: organism-based; conditions: in vivo, 336 h, time 14 day
A549 [3] = assay: Antitumor activity against human A549 cells xenografted in BALB/c mouse model assessed as reduction in fluorescence in kidney at 300 uM, iv measured after 120 mins; type: functional, organism-based
A549 [4] = assay: Photosensitization activity against human A549 cells overexpressing ALP assessed as increase in fluorescence intensity at 10 uM measured upto 60 mins by confocal fluorescent imaging based analysis; type: functional, cell-based
[5] = Toxicity in BALB/c mouse assessed as effect on spleen at 300 uM, iv pre-irradiated with 808nm laser 1.5 W/cm2 for 10 mins and measured after 14 days by H and E staining based analysis; type: organism-based; conditions: in vivo, 336 h, time 14 day
[6] = Toxicity in BALB/c mouse assessed as effect on liver at 300 uM, iv pre-irradiated with 808nm laser 1.5 W/cm2 for 10 mins and measured after 14 days by H and E staining based analysis; type: organism-based; conditions: in vivo, 336 h, time 14 day
A549 [7] = assay: Antitumor activity against human A549 cells xenografted in BALB/c mouse model assessed as inhibition of tumor growth at 300 uM, iv pre-irradiated with 808nm laser 1.5 W/cm2 for 10 mins and measured daily for 14 days; type: functional, organism-based; conditions: time 14.0 day
A549 [8] = assay: Induction of singlet oxygen production in human A549 cells at 10 uM preincubated for 65 mins followed by light irradiation with 808nm laser 1.5 W/cm2 for 10 mins by DCF-DA staining based confocal microscopy analysis; type: functional, cell-based; conditions: time 75.0 min
[9] = Toxicity in BALB/c mouse assessed as effect on body weight loss at 300 uM, iv pre-irradiated with 808nm laser 1.5 W/cm2 for 10 mins and measured after 14 days by H and E staining based analysis; type: organism-based; conditions: in vivo, 336 h, time 14 day
[10] = Induction of singlet oxygen production of the compound assessed as decrease in DPBF absorbance under laser irradiation with 808nm laser 1.5 W/cm2 for upto 15 mins in presence of alkaline phosphatase; type: physicochemical; conditions: isolated protein, 0.25 h
A549 [11] = assay: Antitumor activity against human A549 cells xenografted in BALB/c mouse model assessed as reduction in fluorescence in liver at 300 uM, iv measured after 120 mins; type: functional, organism-based
A549 [12] = assay: Antimigratory activity against human A549 cells measured upto 18 hrs by wound healing assay; type: functional, cell-based
L02 = assay: Photosensitization activity against human L02 cells overexpressing ALP assessed as increase in fluorescence intensity at 10 uM pretreated with MgCl2 for 1 hr followed by compound addition by confocal fluorescent imaging based analysis; type: functional, cell-based
A549 [13] = assay: Antitumor activity against human A549 cells xenografted in BALB/c mouse model assessed as reduction in fluorescence in lung at 300 uM, iv measured after 120 mins; type: functional, organism-based
[14] = Toxicity in BALB/c mouse assessed as effect on kidney at 300 uM, iv pre-irradiated with 808nm laser 1.5 W/cm2 for 10 mins and measured after 14 days by H and E staining based analysis; type: organism-based; conditions: in vivo, 336 h, time 14 day
A549 [15] = assay: Cytotoxicity against human A549 cells assessed as survival rate measured after 12 hrs relative to control; type: functional
HeLa [16] = assay: Phototoxicity in human HeLa cells assessed as decrease in survival rate at 10 uM pre-irradiated with 808nm laser 1.5 W/cm2 for 10 mins and measured after 12 hrs by MTT assay relative to control; type: functional; conditions: light or radiation study, 12.17 h, time 730 min, read-out: Survival
A549 [17] = assay: Induction of singlet oxygen production in human A549 cells assessed as increase in fluorescent signal at 10 uM preincubated for 65 mins followed by light irradiation with 808nm laser 1.5 W/cm2 for 10 mins in presence of Na3VO4 by DCF-DA staining based confocal microscopy analysis; type: functional, cell-based; conditions: time 75.0 min
A549 [18] = assay: Induction of apoptosis in human A549 cells under light irradiation with 808nm laser 1.5 W/cm2 for 10 mins by annexin V-FITC/propidium iodide staining based flow cytometry; type: functional, cell-based
A549 [19] = assay: Antitumor activity against human A549 cells xenografted in BALB/c mouse model assessed as reduction in fluorescence in heart at 300 uM, iv measured after 120 mins; type: functional, organism-based
A549 [20] = assay: Photosensitization activity against human A549 cells overexpressing ALP assessed as increase in fluorescence intensity at 10 uM pretreated with Na3VO4 for 1 hr followed by compound addition and measured upto 60 mins by confocal fluorescent imaging based analysis; type: functional, cell-based; conditions: time <= 60.0 […]
A549 [21] = assay: Antitumor activity against human A549 cells xenografted in BALB/c mouse model assessed as decrease in fluorescence signal at 300 uM, iv measured upto 120 mins; type: functional, organism-based
HeLa [22] = assay: Phototoxicity in human HeLa cells assessed as decrease in survival rate at upto 10 uM pre-irradiated with 808nm laser 1.5 W/cm2 for 10 mins and measured after 12 hrs by MTT assay; type: functional, cell-based; conditions: time 730.0 min
[23] = Cytotoxicity against human L02 cells assessed as survival rate measured after 12 hrs by MTT assay relative to control; type: toxicity, cell-based; conditions: read-out: Survival
A549 [24] = assay: Phototoxicity in human A549 cells assessed as decrease in survival rate at 10 uM pre-irradiated with 808nm laser 1.5 W/cm2 for 10 mins and measured after 12 hrs by MTT assay relative to control; type: functional; conditions: A549, light or radiation study, 12.17 h, time 730 min, read-out: Survival
A549 [25] = assay: Phototoxicity in human A549 cells assessed as reduction in cell viability at 10 uM preincubated for 1 hr followed by light irradiation with 808nm laser 1.5 W/cm2 for 10 mins and measured after 4 hrs in presence of Na3VO4 by Live/Dead dye staining assay; type: functional, cell-based; conditions: time 310.0 min
HeLa [26] = assay: Cytotoxicity against human HeLa cells assessed as survival rate measured after 12 hrs relative to control; type: functional
[27] = Toxicity in BALB/c mouse assessed as effect on tumor at 300 uM, iv pre-irradiated with 808nm laser 1.5 W/cm2 for 10 mins and measured after 14 days by H and E staining based analysis; type: organism-based; conditions: in vivo, 336 h, time 14 day
[28] = Toxicity in BALB/c mouse assessed as effect on heart at 300 uM, iv pre-irradiated with 808nm laser 1.5 W/cm2 for 10 mins and measured after 14 days by H and E staining based analysis; type: organism-based; conditions: in vivo, 336 h, time 14 day
A549 [29] = assay: Phototoxicity in human A549 cells assessed as decrease in survival rate at upto 10 uM pre-irradiated with 808nm laser 1.5 W/cm2 for 10 mins and measured after 12 hrs by MTT assay; type: functional, cell-based; conditions: time 730.0 min
A549 [30] = assay: Antitumor activity against human A549 cells xenografted in BALB/c mouse model assessed as reduction in fluorescence in spleen at 300 uM, iv measured after 120 mins; type: functional, organism-based
A549 [31] = assay: Phototoxicity in human A549 cells assessed as cell viability at 20 uM pre-irradiated with 808nm laser 1.5 W/cm2 for 10 mins and measured after 12 hrs by MTT assay relative to control; type: functional; conditions: A549, light or radiation study, 12.17 h, time 730 min, read-out: Activity
A549 [32] = assay: Phototoxicity in human A549 cells assessed as reduction in cell viability at upto 20 uM preincubated for 1 hr followed by light irradiation with 808nm laser 1.5 W/cm2 for 10 mins and measured after 4 hrs by Live/Dead dye staining assay; type: functional, cell-based; conditions: time 310.0 min
A549 [33] = assay: Phototoxicity in human A549 cells assessed as cell viability at 10 uM pre-irradiated with 808nm laser 1.5 W/cm2 for 10 mins and measured after 12 hrs by MTT assay relative to control; type: functional; conditions: A549, light or radiation study, 12.17 h, time 730 min, read-out: Activity

CC[N+]1=C(/C=C/C2=C3Oc4cc(O)ccc4C=C3CCC2)C(C)(C)c2ccccc21.[I-]
Activity (A549 [1]): >85%

CC[N+]1=C(/C=C/C2=C3Oc4cc(OP(=O)(O)O)c(Br)cc4C=C3CCC2)C(C)(C)c2cc(Br)ccc21.[I-]
Activity [2]: Non-Toxic | Activity (A549 [3]): Active | Activity (A549 [4]): Active | Activity [5]: Non-Toxic | Activity [6]: Non-Toxic | AC30 (A549 [7]): Active | Activity (A549 [8]): Active | Activity [9]: Non-Toxic | Activity [10]: Active | Activity (A549 [11]): Active | Activity (A549 [12]): inactive | Activity (L02): Active | Activity (A549 [13]): Active | Activity [14]: Non-Toxic | Survival (A549 [15]): >85% | viability at 10 µM (HeLa [16]): < 40% | Activity (A549 [17]): inactive | Activity (A549 [18]): Active | Activity (A549 [19]): Active | Activity (A549 [20]): inactive | Activity (A549 [21]): inactive | Activity (HeLa [22]): Active | viability at 12 h [23]: > 85% | viability at 10 µM (A549 [24]): < 40% | Activity (A549 [25]): Active | Survival (HeLa [26]): >85% | Activity [27]: Non-Toxic | Activity [28]: Non-Toxic | Activity (A549 [29]): Active | Activity (A549 [30]): Active

CC[N+]1=C(/C=C/C2=C3Oc4cc(O)c(Br)cc4C=C3CCC2)C(C)(C)c2cc(Br)ccc21
viability at 20 µM (A549 [31]): < 20% | Activity (A549 [8]): Active | Activity (A549 [32]): Active | viability at 10 µM (A549 [33]): 40% | Activity (A549 [18]): Active

CC[N+]1=C(/C=C/C2=C3Oc4cc(O)ccc4C=C3CCC2)C(C)(C)c2cc(Br)ccc21.[I-]
Activity (A549 [1]): >85%

CC[N+]1=C(/C=C/C2=C3Oc4cc(O)c(Br)cc4C=C3CCC2)C(C)(C)c2ccccc21.[I-]
Activity (A549 [1]): >85%
